Experimental data from ChEMBL document CHEMBL1201862, “PubChem BioAssay data set” (2004).
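All cell lines were grown in 96-well plates and treated with compound for 48 hours. Abbreviation: GI50, concentration required for 50% inhibition of growth.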 Calls of active or inactive are those of the source. No stated cut-off is given here; in the data, active = GI50 up to about 1.1 µM and inactive = higher. Where a SMILES comes first, the peptide text is derived from it. The star is where a group is joined. Cbz = O=C(OCc1ccccc1)*; Boc = CC(C)(C)OC(=O)*; Bn = c1ccc(C*)cc1

Key:
Experiment in all cases: NCI anticancer screen, dose series, 48 h
A498 = system: A498
MDA-MB-435 = system: MDA-MB-435
SK-MEL-28 = system: SK-MEL-28
ACHN = system: ACHN
HOP-62 = system: HOP-62
UO-31 = system: UO-31
SW-620 = system: SW-620
DU-145 = system: DU-145
Malme-3M = system: Malme-3M
NCI-H23 = system: NCI-H23
NCI-H226 = system: NCI-H226
IGROV-1 = system: IGROV-1
SK-MEL-2 = system: SK-MEL-2
BT-549 = system: BT-549
SF-295 = system: SF-295
HT-29 = system: HT-29
OVCAR-3 = system: OVCAR-3
U-251 = system: U-251
SF-539 = system: SF-539
MCF7 = system: MCF7

SMILES	GI50 (A498)	GI50 (MDA-MB-435)	GI50 (SK-MEL-28)	GI50 (ACHN)	GI50 (HOP-62)	GI50 (UO-31)	GI50 (SW-620)	GI50 (DU-145)	GI50 (Malme-3M)	GI50 (NCI-H23)	GI50 (NCI-H226)	GI50 (IGROV-1)	GI50 (SK-MEL-2)	GI50 (BT-549)	GI50 (SF-295)	GI50 (HT-29)	GI50 (OVCAR-3)	GI50 (U-251)	GI50 (SF-539)	GI50 (MCF7)
COc1ccc(CC(O)CN2CCOCC2)cc1 (stereo unspecified)	> 100 µM (inactive)	> 100 µM (inactive)	> 100 µM (inactive)	> 100 µM (inactive)	> 100 µM (inactive)	> 100 µM (inactive)	> 100 µM (inactive)	> 100 µM (inactive)	> 100 µM (inactive)	> 100 µM (inactive)	> 100 µM (inactive)	> 100 µM (inactive)	> 100 µM (inactive)	> 100 µM (inactive)	> 100 µM (inactive)	> 100 µM (inactive)	> 100 µM (inactive)	> 100 µM (inactive)	–	–
CN1CCCCCC(=N\O)/C(=N/O)CCCCC1	> 100 µM (inactive)	> 100 µM (inactive)	> 100 µM (inactive)	> 100 µM (inactive)	> 100 µM (inactive)	> 100 µM (inactive)	> 100 µM (inactive)	> 100 µM (inactive)	> 100 µM (inactive)	> 100 µM (inactive)	> 100 µM (inactive)	> 100 µM (inactive)	–	80.7 µM (inactive)	> 100 µM (inactive)	> 100 µM (inactive)	> 100 µM (inactive)	> 100 µM (inactive)	> 100 µM (inactive)	> 100 µM (inactive)
COc1cc(OC)cc(C(=O)CC(=O)c2cc(OC)cc(OC)c2)c1	> 100 µM (inactive)	87.5 µM (inactive)	> 100 µM (inactive)	> 100 µM (inactive)	> 100 µM (inactive)	> 100 µM (inactive)	95.1 µM (inactive)	> 100 µM (inactive)	> 100 µM (inactive)	> 100 µM (inactive)	> 100 µM (inactive)	> 100 µM (inactive)	–	> 100 µM (inactive)	> 100 µM (inactive)	–	> 100 µM (inactive)	> 100 µM (inactive)	> 100 µM (inactive)	> 100 µM (inactive)
Cc1cc(-c2nc3c(O)cccc3s2)ccc1N	–	17.7 µM (inactive)	57.9 µM (inactive)	17.2 µM (inactive)	25.6 µM (inactive)	15.8 µM (inactive)	41.4 µM (inactive)	> 100 µM (inactive)	–	26.9 µM (inactive)	31.6 µM (inactive)	17 µM (inactive)	22.7 µM (inactive)	22.1 µM (inactive)	25.9 µM (inactive)	21.8 µM (inactive)	26.5 µM (inactive)	29.6 µM (inactive)	47.9 µM (inactive)	13 µM (inactive)
CN(C)c1ccc(-c2c(C#N)c(-c3ccccc3)n(NS(=O)(=O)c3ccccc3)c(=O)c2C#N)cc1	57 µM (inactive)	71.4 µM (inactive)	70.8 µM (inactive)	45.8 µM (inactive)	38.8 µM (inactive)	–	43.3 µM (inactive)	–	40.1 µM (inactive)	–	> 100 µM (inactive)	40.8 µM (inactive)	41.6 µM (inactive)	56.9 µM (inactive)	41.7 µM (inactive)	76.7 µM (inactive)	–	50.7 µM (inactive)	33.3 µM (inactive)	40.7 µM (inactive)
O=S(=O)(O)c1ccc(/N=N/c2ccc(/N=N/c3c(O)c(S(=O)(=O)O)cc4cc(S(=O)(=O)O)ccc34)cc2)cc1	–	> 100 µM (inactive)	> 100 µM (inactive)	> 100 µM (inactive)	> 100 µM (inactive)	> 100 µM (inactive)	> 100 µM (inactive)	> 100 µM (inactive)	> 100 µM (inactive)	> 100 µM (inactive)	> 100 µM (inactive)	> 100 µM (inactive)	> 100 µM (inactive)	> 100 µM (inactive)	> 100 µM (inactive)	> 100 µM (inactive)	> 100 µM (inactive)	> 100 µM (inactive)	> 100 µM (inactive)	> 100 µM (inactive)
CCN(CC)c1nc(NC2CCCCC2)c2nc(N(CC)CC)nc(NC3CCCCC3)c2n1	> 100 µM (inactive)	> 100 µM (inactive)	> 100 µM (inactive)	> 100 µM (inactive)	73.1 µM (inactive)	–	> 100 µM (inactive)	> 100 µM (inactive)	> 100 µM (inactive)	> 100 µM (inactive)	> 100 µM (inactive)	> 100 µM (inactive)	–	> 100 µM (inactive)	> 100 µM (inactive)	> 100 µM (inactive)	> 100 µM (inactive)	> 100 µM (inactive)	29.5 µM (inactive)	> 100 µM (inactive)
COc1ccc2nc3n(c2c1)C(c1c(Cl)cccc1Cl)SC3 (stereo unspecified)	> 100 µM (inactive)	> 100 µM (inactive)	> 100 µM (inactive)	> 100 µM (inactive)	59.7 µM (inactive)	> 100 µM (inactive)	> 100 µM (inactive)	> 100 µM (inactive)	–	> 100 µM (inactive)	> 100 µM (inactive)	> 100 µM (inactive)	> 100 µM (inactive)	> 100 µM (inactive)	> 100 µM (inactive)	–	> 100 µM (inactive)	> 100 µM (inactive)	–	> 100 µM (inactive)
Cc1ccc(SCC(OCn2cnc3c(Cl)nc(N)nc32)[C@H](C)F)cc1 (stereo partly specified)	–	> 100 µM (inactive)	> 100 µM (inactive)	37.5 µM (inactive)	> 100 µM (inactive)	59.3 µM (inactive)	> 100 µM (inactive)	> 100 µM (inactive)	88.9 µM (inactive)	50.9 µM (inactive)	> 100 µM (inactive)	> 100 µM (inactive)	> 100 µM (inactive)	52.4 µM (inactive)	53.7 µM (inactive)	82.2 µM (inactive)	> 100 µM (inactive)	98.4 µM (inactive)	> 100 µM (inactive)	29.9 µM (inactive)
CC1(C(O)c2ccccc2)CN(C(C)(C)C)C(=O)/C1=C\Sc1ccccc1 (stereo unspecified)	> 100 µM (inactive)	30.1 µM (inactive)	> 100 µM (inactive)	64.1 µM (inactive)	99.1 µM (inactive)	29.7 µM (inactive)	46.8 µM (inactive)	> 100 µM (inactive)	–	> 100 µM (inactive)	–	33.3 µM (inactive)	21.3 µM (inactive)	59.6 µM (inactive)	28.3 µM (inactive)	21.1 µM (inactive)	21.2 µM (inactive)	22.6 µM (inactive)	> 100 µM (inactive)	33.7 µM (inactive)
C=CCc1oc(C)nc1CCCC	> 100 µM (inactive)	> 100 µM (inactive)	> 100 µM (inactive)	> 100 µM (inactive)	> 100 µM (inactive)	> 100 µM (inactive)	> 100 µM (inactive)	> 100 µM (inactive)	> 100 µM (inactive)	> 100 µM (inactive)	> 100 µM (inactive)	> 100 µM (inactive)	–	> 100 µM (inactive)	> 100 µM (inactive)	> 100 µM (inactive)	> 100 µM (inactive)	> 100 µM (inactive)	> 100 µM (inactive)	> 100 µM (inactive)
COc1ccc2[nH]c3c(C)c4cnccc4c(C)c3c2c1	–	1.48 µM (inactive)	1.94 µM (inactive)	2.01 µM (inactive)	1.43 µM (inactive)	–	0.964 µM (active)	2.93 µM (inactive)	1.45 µM (inactive)	6.25 µM (inactive)	1.4 µM (inactive)	3.85 µM (inactive)	5.14 µM (inactive)	7.48 µM (inactive)	3.3 µM (inactive)	1.11 µM (active)	1.14 µM (inactive)	1.72 µM (inactive)	1.88 µM (inactive)	1.52 µM (inactive)
O=C(O)Cc1ccc(/N=N/c2c(O)c(C(=O)O)cc3ccccc23)cc1	–	> 100 µM (inactive)	> 100 µM (inactive)	> 100 µM (inactive)	> 100 µM (inactive)	> 100 µM (inactive)	> 100 µM (inactive)	> 100 µM (inactive)	24.8 µM (inactive)	–	> 100 µM (inactive)	> 100 µM (inactive)	> 100 µM (inactive)	> 100 µM (inactive)	> 100 µM (inactive)	> 100 µM (inactive)	> 100 µM (inactive)	> 100 µM (inactive)	> 100 µM (inactive)	> 100 µM (inactive)
CC(=O)Oc1cc2c(n(C)c1=O)-c1ccccc1C2	97.7 µM (inactive)	> 100 µM (inactive)	> 100 µM (inactive)	32.5 µM (inactive)	81.7 µM (inactive)	41 µM (inactive)	24.4 µM (inactive)	> 100 µM (inactive)	31.8 µM (inactive)	75.5 µM (inactive)	> 100 µM (inactive)	36.2 µM (inactive)	> 100 µM (inactive)	46.1 µM (inactive)	> 100 µM (inactive)	78.2 µM (inactive)	33.3 µM (inactive)	75.9 µM (inactive)	–	–
CC(C)(C)OC(=O)NC(Cc1ccc(OCc2ccccc2)cc1)C(=O)NC(CCCCNC(=O)OCc1ccccc1)C(=O)O (stereo unspecified) (Boc-Tyr(Bn)-Lys(Cbz)-OH; configuration not given here)	–	–	17.4 µM (inactive)	–	61.1 µM (inactive)	73.8 µM (inactive)	49 µM (inactive)	–	94.2 µM (inactive)	29.2 µM (inactive)	96.4 µM (inactive)	34 µM (inactive)	28 µM (inactive)	17.3 µM (inactive)	–	62.1 µM (inactive)	–	33.8 µM (inactive)	–	34.6 µM (inactive)
